{"source": "patent US20250011722A1", "about": "“HEPATIC ORGANOIDS” (Koninklijke Nederlandse Akademie van Wetenschappen, priority 2021, published 2025)", "format_in_all_cases": "cell-based, human", "key": {"[1]": {"tested_on": "PLIN2::tdTomato; MTTP^−/− reporter organoids", "experiment": "drug screening in PLIN2 reporter organoids, fluorescence read-out", "settings": "PLIN2-tagged reporter organoids, ACCi or vehicle for 5 days", "description": "PLIN2 reporter lines in the background of APOB^−/− or MTTP^−/− organoids were generated using CRISPR-HOT as described previously (Artegiani et al., 2020; Hendriks et al., 2021). Briefly, the transfection mixture consisted of a sgRNA targeting the C-terminus of PLIN2, a plasmid providing both Cas9 and a non-human sgRNA targeting the donor plasmid (Addgene #66940), and a donor plasmid encoding either tdTomato (Addgene #138567) or mNeon (a gift from V. Hornung). Upon transfection, the sgRNA targeting the donor plasmid linearizes the donor plasmid to facilitate NHEJ-mediated in-frame gene knock-in of the fluorescent tag into the PLIN2 C-terminus. Upon outgrowth of transfected organoids, fluorescent organoids became apparent. A bulk PLIN2-tagged fluorescence-pure culture was established by sorting single fluorescence-positive cells by FACS. Genotyping was performed to confirm precise gene knock-in.\nAPOB^−/− and MTTP^−/− organoids were exposed to the drugs or vehicle in 24-well plates for 7 days with 2 medium changes. […] Drug effects were evaluated by observing the lipid droplet fluorescence characteristics within all organoids within the whole well. Quantitative analyses were performed in representative organoids (n≥3) per drug concentration per steatosis organoid model. […] Images and fluorescence quantifications are representative of two independent experiments."}, "[2]": {"tested_on": "APOB^−/− organoids", "experiment": "bulk RNA-sequencing of drug-treated organoids", "description": "Organoids from 1 well of a 12-well plate were harvested and washed in cold AdvDMEM+++. Organoid pellets were lysed in 1 ml TRIzol Reagent and subsequently snap-frozen in liquid nitrogen. RNA was extracted according to the manufacturer's protocol. RNA integrity was measured using the Agilent RNA 6000 Nano kit with the Agilent 2100 Bioanalyzer and RNA concentrations were determined using the Qubit RNA HS Assay Kit. RNA integrity number (RIN) values of RNA samples were typically 9.5-10 and never below 9.0. RNA libraries were prepared TruSeq Stranded mRNA polyA kit and single-end (1×75 bp) sequenced on an Illumina Nextseq 2000 or Nextseq 500. Reads were mapped to the human GRCh38 genome assembly. Differential gene expression analysis was performed using the DESeq2 package (Love et al., 2014) in RStudio. Considered log 2 fold changes and significance (p-values) are indicated throughout the paper. Data visualization was obtained using the ggplot2, ComplexHeatmap, and EnhancedVolcano packages in RStudio or manually plotted using GraphPad Prism 8."}, "[3]": {"tested_on": "FFA-loaded wild type organoids", "experiment": "anti-NAFLD drug screening, Nile Red lipid staining and lipid score", "settings": "wild type organoids pre-incubated with 500 μM FFAs 2 days, then drugs 7 days in presence of FFA", "description": "Wild type human hepatocyte organoids were made steatotic by providing a concentrated mixture of exogenous FFAs (oleic acid (18:1) and palmitic acid (16:0), ratio 1:1) in the culture medium. The FFAs were dissolved in ethanol and thereafter conjugated to bovine serum albumin. Prior to fat loading, organoids were plated into small BME droplets (15 μl/drop) to facilitate FFA penetration. Total concentrations of FFA were 640 μM for transcriptomic analyses to mimic the level of steatosis observed in APOB^−/− or MTTP^−/− organoids.\n(§1) Compound stocks of all drugs were made in DMSO, except for recombinant hFGF19 and hFGF21 which were reconstituted in AdvDMEM+++. Drugs were dissolved in HEP medium with a maximum final concentration of 0.2% DMSO. The drug panel, their targets, and concentrations tested are described in Table 2.\nAPOB^−/− and MTTP^−/− organoids were exposed to the drugs or vehicle in 24-well plates for 7 days with 2 medium changes. Wild type organoids were first made steatotic by pre-incubation with 500 μM FFAs (oleic acid and palmitic acid, 1:1 ratio) for 2 days. Then, FFA-loaded organoids were treated with the different drugs, still in the presence of FFA, for 7 days with 2 medium changes. All organoids were harvested for subsequent lipid staining and lipid scoring as described below. Drug effects were evaluated by observing the lipid droplet fluorescence characteristics within all organoids within the whole well. Quantitative analyses were performed in representative organoids (n≥3) per drug concentration per steatosis organoid model. Drug effects were validated in at least two independent experiments. […] Images and fluorescence quantifications are representative of two independent experiments. […]\nStained organoids were imaged on a Leica Sp8 confocal. […] The lipid score was calculated using Fiji software. The lipid score is defined by integrating the lipid droplet fluorescence and lipid droplet area coverage as follows: a fluorescence threshold derived from the lipid droplet signal is determined on Z-projected images to convert them into binary images. The region of interest (ROI) (organoid surface area) is defined based on fluorescence signal from the counterstained DAPI^+ nuclei. Then, particle measurement analysis is performed to define the fluorescence area covered within the defined ROI. The lipid score represents a normalized score of the resulting data on a linear 0 to 1 scale, where the mean calculated values from wild type organoids are arbitrarily set to 0, while the mean calculated values from either vehicle-treated APOB^−/− or MTTP^−/− organoids or vehicle-treated FFA-loaded organoids are set to 1, allowing scoring of drug effectiveness within these boundaries. […]"}, "[4]": {"tested_on": "APOB^−/− organoids", "experiment": "anti-NAFLD drug screening, Nile Red lipid staining and lipid score", "settings": "APOB^−/− organoids exposed to drugs for 7 days", "description": "as §1\n(§2) APOB^−/− and MTTP^−/− organoids were exposed to the drugs or vehicle in 24-well plates for 7 days with 2 medium changes. Wild type organoids were first made steatotic by pre-incubation with 500 μM FFAs (oleic acid and palmitic acid, 1:1 ratio) for 2 days. Then, FFA-loaded organoids were treated with the different drugs, still in the presence of FFA, for 7 days with 2 medium changes. All organoids were harvested for subsequent lipid staining and lipid scoring as described below. Drug effects were evaluated by observing the lipid droplet fluorescence characteristics within all organoids within the whole well. Quantitative analyses were performed in representative organoids (n≥3) per drug concentration per steatosis organoid model. Drug effects were validated in at least two independent experiments. For drug screening in PLIN2::tdTomato reporter organoids, the organoids were plated in 96-well black plates and treated with the indicated drugs. Pictures were taken over a 7-day time course using the EVOS FL Auto Imaging System. Images and fluorescence quantifications are representative of two independent experiments.\n(§3) Organoids were carefully harvested in cold AdvDMEM+++ and washed once with cold AdvDMEM+++ using low-speed centrifugations. Organoids were fixed in 4% formaldehyde at RT for 30 min-1 hour. For lipid stainings, organoids were washed twice with PBS, and incubated with Nile Red (1 μg/μl) and DAPI (1 μg/μl) for 20 min at RT. Organoids were washed twice with PBS, and transferred in 100 μl PBS to a well of a 96-well black SensoPlate for imaging analysis. […] Organoids were washed once with 0.5% BSA-PBS and subsequently incubated with primary antibodies in 2.5% BSA-PBS O/N at 4° C. After 3 washes with 0.5% BSA-PBS, organoids were incubated with secondary antibodies in 2.5% BSA-PBS for 2-4 hours at RT. Organoids were washed once with 0.5% BSA-PBS, after which they were incubated with DAPI (1 μg/μl) in 0.5% BSA-PBS for 20 min at RT, and washed once more with 0.5% BSA-PBS. Organoids were then transferred in 100 μl 0.5% BSA-PBS to a well of a 96-well black SensoPlate.\n(§4) Stained organoids were imaged on a Leica Sp8 confocal. Fluorescent images were processed using Photoshop CS4 or ImageJ software. The lipid score was calculated using Fiji software. The lipid score is defined by integrating the lipid droplet fluorescence and lipid droplet area coverage as follows: a fluorescence threshold derived from the lipid droplet signal is determined on Z-projected images to convert them into binary images. The region of interest (ROI) (organoid surface area) is defined based on fluorescence signal from the counterstained DAPI^+ nuclei. Then, particle measurement analysis is performed to define the fluorescence area covered within the defined ROI. The lipid score represents a normalized score of the resulting data on a linear 0 to 1 scale, where the mean calculated values from wild type organoids are arbitrarily set to 0, while the mean calculated values from either vehicle-treated APOB^−/− or MTTP^−/− organoids or vehicle-treated FFA-loaded organoids are set to 1, allowing scoring of drug effectiveness within these boundaries. Quantification of the amount of lipid droplets was performed manually by counting droplets within a given ROI (organoid surface area). The lipid droplet area coverage is determined identical to the lipid score without the final normalization steps."}, "[5]": {"tested_on": "MTTP^−/− organoids", "experiment": "anti-NAFLD drug screening, Nile Red lipid staining and lipid score", "settings": "MTTP^−/− organoids exposed to drugs for 7 days", "description": "as §1, §2, §3, §4"}}, "note": "“Also recorded” adds a separate entry of the source.", "data": [{"compound": "COc1ccccc1[C@H](Cn1c(=O)n(C(C)(C)C(=O)O)c(=O)c2c(C)c(-c3ncco3)sc21)OC1CCOCC1", "note": "[ACCi, Firsocostat]", "values": [{"measurement": "endogenous fluorescent signal of PLIN2 reporter", "setting": "[1]", "value": "reduced the endogenous fluorescent signal"}, {"measurement": "expression of genes important for cell proliferation and DNA synthesis", "setting": "[2]", "value": "downregulation"}, {"measurement": "expression of key genes involved in glycolysis (ALDOB, HK2, ENO2, PFKFB3/4)", "setting": "[2]", "value": "downregulated"}, {"measurement": "expression of lipogenic genes (ACACA, FASN, SREBF1, etc.)", "setting": "[2]", "value": "increased expression"}, {"measurement": "steatosis phenotype (lipid staining, lipid score)", "setting": "[3]", "value": "Effective"}, {"measurement": "steatosis phenotype (lipid staining, lipid score)", "setting": "[4]", "value": "Effective"}, {"measurement": "steatosis phenotype (lipid staining, lipid score)", "setting": "[5]", "value": "Effective"}]}, {"compound": "CS(=O)(=O)O.O=C([C@@H]1CCCN(c2ccc3[nH]c(C4(n5cc(Cl)cn5)CC4)nc3n2)C1)N1CCCC1", "note": "[DGAT2i, PF06424439]", "values": [{"measurement": "transcriptomic changes versus vehicle-treated organoids", "setting": "[2]", "value": "transcriptomically identical to vehicle-treated organoids; also recorded: very few transcriptomic changes"}, {"measurement": "steatosis phenotype (lipid staining, lipid score)", "setting": "[3]", "value": "Effective"}, {"measurement": "steatosis phenotype (lipid staining, lipid score)", "setting": "[4]", "value": "Effective"}, {"measurement": "steatosis phenotype (lipid staining, lipid score)", "setting": "[5]", "value": "Effective"}]}, {"compound": "O=C(Nc1ccc2[nH]nc(-c3ccncc3)c2c1)[C@@H]1CCN(CC(=O)N2CCN(c3ccc(-c4ncccn4)cc3)CC2)C1", "note": "[ERKi, SCH772984]", "values": [{"measurement": "steatosis phenotype (lipid staining, lipid score)", "setting": "[4]", "value": "did not alter the steatosis phenotype"}, {"measurement": "steatosis phenotype (lipid staining, lipid score)", "setting": "[5]", "value": "did not alter the steatosis phenotype"}]}, {"compound": "Cc1nnc(-c2cc(C(=O)N3CCC(c4ccc(C#N)cc4)CC3)c(C)cc2C2CCC2)[nH]1", "note": "[FASi, TVB2640]", "values": [{"measurement": "expression of genes important for cell proliferation and DNA synthesis", "setting": "[2]", "value": "downregulation"}, {"measurement": "expression of key genes involved in glycolysis (ALDOB, HK2, ENO2, PFKFB3/4)", "setting": "[2]", "value": "downregulated"}, {"measurement": "expression of lipogenic genes (ACACA, FASN, SREBF1, etc.)", "setting": "[2]", "value": "increased expression"}, {"measurement": "steatosis phenotype (lipid staining, lipid score)", "setting": "[3]", "value": "Effective"}, {"measurement": "steatosis phenotype (lipid staining, lipid score)", "setting": "[4]", "value": "Effective"}, {"measurement": "steatosis phenotype (lipid staining, lipid score)", "setting": "[5]", "value": "Effective"}]}, {"compound": "O=C(O)c1ccnc(N2CC(O)(c3ccc(OCc4c(-c5c(Cl)cccc5Cl)noc4C4CC4)cc3Cl)C2)c1", "note": "[FXRa, Cilofexor]", "values": [{"measurement": "FGF19 expression", "setting": "[2]", "value": "strongly upregulated"}, {"measurement": "expression of FXR target genes CYP7A1 and CYP27A1", "setting": "[2]", "value": "downregulation"}, {"measurement": "expression of NR0B2 (SHP)", "setting": "[2]", "value": "induction"}, {"measurement": "expression of de novo lipogenesis-related genes, including DGAT2, ACSS2, and GPAM", "setting": "[2]", "value": "repress"}, {"measurement": "expression of key hepatocyte markers (ALB, TTR)", "setting": "[2]", "value": "downregulation"}, {"measurement": "expression of transporters such as BSEP (ABCB11)", "setting": "[2]", "value": "induction"}, {"measurement": "genes of TGFβ regulation of extracellular matrix", "setting": "[2]", "value": "gene induction patterns suggestive of TGFβ-related extracellular matrix remodeling"}]}, {"compound": "Oc1ccc(-c2nc(-c3ccncc3)c(-c3ccc(F)cc3)[nH]2)cc1", "note": "[p38i, SB202190]", "values": [{"measurement": "steatosis phenotype (lipid staining, lipid score)", "setting": "[4]", "value": "reduced the steatosis phenotype"}, {"measurement": "steatosis phenotype (lipid staining, lipid score)", "setting": "[5]", "value": "reduced the steatosis phenotype"}]}, {"compound": "hFGF19: recombinant human FGF19, activates β-Klotho/FGFRs", "values": [{"measurement": "expression of FXR target genes CYP7A1 and CYP27A1", "setting": "[2]", "value": "downregulation"}, {"measurement": "expression of NR0B2 (SHP)", "setting": "[2]", "value": "induction"}, {"measurement": "expression of de novo lipogenesis-related genes, including DGAT2, ACSS2, and GPAM", "setting": "[2]", "value": "repress"}, {"measurement": "expression of key hepatocyte markers (ALB, TTR)", "setting": "[2]", "value": "downregulation"}, {"measurement": "genes of TGFβ regulation of extracellular matrix", "setting": "[2]", "value": "gene induction patterns suggestive of TGFβ-related extracellular matrix remodeling"}, {"measurement": "steatosis phenotype (lipid staining, lipid score)", "setting": "[3]", "value": "marked steatosis-reducing effects"}, {"measurement": "steatosis phenotype (lipid staining, lipid score)", "setting": "[4]", "value": "marked steatosis-reducing effects"}, {"measurement": "steatosis phenotype (lipid staining, lipid score)", "setting": "[5]", "value": "marked steatosis-reducing effects"}]}]}
